Tests used:
[1] = target: T1, porcine leukocyte 12/15-Lipoxygenase (Sus scrofa, UniProt P16469); test: 12/15-Lipoxygenase Enzyme Assay; assay type: biochemical; conditions: 70 μM arachidonic acid, 10 minute incubation at room temperature, FOX reagent, absorbance at 620 nm; read-out: inhibition of 12/15-Lipoxygenase with an IC50
T1 sequence (P16469 1-663): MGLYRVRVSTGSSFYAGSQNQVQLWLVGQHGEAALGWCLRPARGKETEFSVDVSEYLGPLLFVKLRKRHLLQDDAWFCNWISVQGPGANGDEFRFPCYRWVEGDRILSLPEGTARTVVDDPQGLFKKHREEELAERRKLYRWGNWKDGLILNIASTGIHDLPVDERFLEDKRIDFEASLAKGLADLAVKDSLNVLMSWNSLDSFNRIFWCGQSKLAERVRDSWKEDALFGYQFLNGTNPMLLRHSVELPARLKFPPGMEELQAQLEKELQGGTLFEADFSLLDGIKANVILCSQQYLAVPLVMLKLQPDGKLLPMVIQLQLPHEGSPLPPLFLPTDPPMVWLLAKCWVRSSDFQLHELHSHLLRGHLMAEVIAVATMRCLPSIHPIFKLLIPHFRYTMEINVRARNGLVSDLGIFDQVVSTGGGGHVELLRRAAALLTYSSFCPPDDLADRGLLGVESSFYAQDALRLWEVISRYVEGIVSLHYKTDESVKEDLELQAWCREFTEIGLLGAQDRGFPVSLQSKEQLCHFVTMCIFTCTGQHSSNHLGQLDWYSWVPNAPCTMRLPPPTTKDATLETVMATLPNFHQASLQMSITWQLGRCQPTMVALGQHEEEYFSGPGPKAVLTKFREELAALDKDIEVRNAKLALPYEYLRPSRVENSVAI
From the text: This procedure was used for measuring the enzymatic activity of porcine leukocyte 12/15-Lipoxygenase using a […] method based on the ferric oxidation of xylenol orange.
• 96 well flat bottom microfilter plates (VWR, Catalog # 62402-933 9295) • Lipoxygenase screening assay buffer (Cayman, Catalog # 760710) • Porcine leukocyte 12/15-Lipoxygenase (Cayman, Catalog # 60300) • Arachidonic Acid (Sigma, Catalog # A3555) • Xylenol orange tetrasodium salt (Aldrich, Catalog # 227854) • Iron (II) sulfate heptahydrate (Sigma, Catalog # F7002) • Sulfuric acid (95-98%) [18M] • Methanol Procedure
Porcine Leukocyte 12/15-Lipoxygenase (Cayman Cat # 60300) was used in this assay. Test compound and/or vehicle was added to 1.3 μL 12/15-Lipoxygenase in 50 mM Tris-HCl buffer, pH 7.4. The reaction was initiated by addition of 70 μM arachidonic acid in Tris-HCl buffer, pH 7.4, and terminated after a 10 minute incubation at room temperature by addition of FOX reagent (25 mM sulfuric acid, 100 μM xylenol orange, 100 μM iron (II) sulfate, methanol:water 9:1). The yellow color of acidified xylenol orange was converted to a blue color by the lipid hydroperoxide-mediated oxidation of Fe^2+ ions and the interaction of the resulting Fe^3+ ions with the dye. The complex was allowed to form during a 1 hour incubation at room temperature with shaking. Absorbance of the Fe^3+ complex was then measured at […] using a spectrophotometer.
Negative controls contained enzyme during the incubation step but substrate was not added until after the FOX reagent. Compounds are screened at 5 concentrations in triplicate starting at 10 μM

[2] = system: release of the leukotriene LTB4 from a neutrophil cell line (MPRO cell line); test: LTB4-Cell Assay; assay type: cell-based; conditions: Mus musculus, 1 h, read-out: inhibition of LTB4 with an EC50
From the text: • This procedure was used for measuring the release of the leukotriene LTB4 from a neutrophil cell line using a competitive ELISA technique. Materials and Equipments Materials for Cell Preparation and Experiment • MPRO cell line (ATCC, Catalog # CRL-11422) • Calcium ionophore (A23187) (Sigma, Catalog # C7522) • Nordihydroguaiaretic acid (NDGA) (BioMol ,Catalog # EI101-0001) • Retinoic Acid (all-trans) (ATRA) (Sigma, Catalog # 95152) • Sterile, tissue-culture treated 96-well plates (Corning, Catalog # 3614) Materials for LTB4 ELISA • Precoated (Mouse Anti-Rabbit IgG) EIA 96 Well Strip Plates (Cayman, Catalog # 400004) • Leukotriene B4 AChE Tracer (Cayman Catalog # 420110) • Leukotriene B4 EIA Antiserum (Cayman Catalog # 420112) • Ellman's Reagent (Cayman Catalog # 400050) • EIA Buffer Concentrate (10×) (Cayman Catalog # 400060) • Wash Buffer Concentrate (400×) (Cayman Catalog # 400062) • Plastic plate covers (Cayman Catalog # 400012) Procedure
A mouse promyelocytic cell line (MPRO) was used in this assay. These cells are committed immature neutrophils that can be differentiated into mature neutrophils by treatment with 10 μM all-trans retinoic acid for 72 hours.
Following 72 hours of differentiation, cells were stimulated with 1 μM of a calcium ionophore (A23187) in the presence or absence of test compound or vehicle for 1 hour at 37° C. After this time, supernatant was removed from the cells and the LTB4 levels were determined following manufacturer's instructions, using a Leukotriene B4 EIA kit from Cayman (Cat # 5201 11). The negative controls were media samples from differentiated but un-stimulated cells. The compounds were screened at 5 concentrations in quadruplicate starting at 10 μM.

[3] = system: LTB4 production in human whole blood; test: Inhibition of LTB4 Production in Blood; assay type: cell-based; conditions: 1 h, 20 μM A23187, 60 minutes at 37° C., LTB4 in plasma by ELISA, read-out: protection against LTB4 at an EC50
Method in brief: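 Citrated human whole blood preincubated 15 min at 37 °C with compound (top final 30 μM, 1:3 dilutions, quadruplicate), then stimulated with 20 μM A23187 for 60 min at 37 °C. Plasma LTB4 quantified by ELISA; IC50 from percent inhibition versus vehicle.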

[4] = target: T2, human recombinant 5-Lipoxygenase (Homo sapiens, UniProt P09917); test: 5-Lipoxygenase Enzyme Assay; assay type: biochemical; conditions: 70 μM arachidonic acid, 10 minute incubation at room temperature, FOX reagent, absorbance at 620 nm; read-out: inhibition of 5-Lipoxygenase with an IC50
T2 sequence (P09917 1-674): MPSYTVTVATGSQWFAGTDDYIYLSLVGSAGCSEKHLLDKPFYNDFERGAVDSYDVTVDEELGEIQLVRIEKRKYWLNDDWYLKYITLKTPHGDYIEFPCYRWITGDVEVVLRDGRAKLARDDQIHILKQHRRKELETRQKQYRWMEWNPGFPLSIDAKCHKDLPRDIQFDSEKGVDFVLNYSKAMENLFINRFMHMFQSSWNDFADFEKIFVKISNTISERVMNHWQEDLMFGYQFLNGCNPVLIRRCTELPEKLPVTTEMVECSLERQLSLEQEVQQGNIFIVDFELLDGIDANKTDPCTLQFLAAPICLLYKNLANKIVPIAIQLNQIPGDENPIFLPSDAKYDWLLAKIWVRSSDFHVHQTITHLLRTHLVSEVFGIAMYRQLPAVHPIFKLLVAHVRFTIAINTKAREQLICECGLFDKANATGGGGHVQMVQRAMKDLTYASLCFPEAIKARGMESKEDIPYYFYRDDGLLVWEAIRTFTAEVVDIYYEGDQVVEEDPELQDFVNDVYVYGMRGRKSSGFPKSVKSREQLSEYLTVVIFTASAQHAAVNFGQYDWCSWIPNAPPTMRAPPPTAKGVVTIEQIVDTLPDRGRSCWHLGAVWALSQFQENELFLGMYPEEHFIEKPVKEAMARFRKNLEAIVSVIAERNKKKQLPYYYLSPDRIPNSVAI
Method in brief: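 Recombinant human 5-LOX in 50 mM Tris-HCl pH 7.4 was preincubated with compound, then 70 μM arachidonic acid was added for 10 min at room temperature. Hydroperoxide was read by FOX reagent (ferric xylenol orange, 1 h complex formation) as absorbance at 620 nm. Five concentrations in triplicate were tested, starting at 10 μM.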

`COc1c(C(C)(C)C)cc2c(c1C)CC1(CCC1)CN2c1ccc(O)cn1` [6-(7′-tert-butyl-6′-methoxy-5′-methyl-2′,4′-dihydro-1′H-spiro[cyclobutane-1,3′-quinoline]-1′-yl)pyridin-3-ol] was tested, and the IC50 [1] was under 5 µM.
`CCOC1c2c(C)c(O)c(C)c(C)c2OCC12CCC2` (stereo not shown) [4-ethoxy-5,7,8-trimethylspiro[chroman-3,1′-cyclobutan]-6-ol] was tested, and the EC50 [2] was under 5 µM, the EC50 [3] was under 10 µM and the IC50 [4] was under 0.3 µM.
Compound `Cc1c(C)c2c(c(C)c1O)C(NO)CC1(CCC1)O2` (stereo not shown) [4-(hydroxyamino)-5,7,8-trimethyl-3,4-dihydrospiro[chromene-2,1′-cyclobutan]-6-ol] has an EC50 [2] of under 5 µM, an EC50 [3] of under 10 µM and an IC50 [4] of under 0.3 µM.
For `CCONC1CC2(CCC2)Oc2c(C)c(C)c(O)c(C)c21` (stereo not shown) [4-(ethoxyamino)-5,7,8-trimethyl-3,4-dihydrospiro[chromene-2,1′-cyclobutan]-6-ol], the EC50 [2] was under 5 µM, the EC50 [3] was under 10 µM and the IC50 [4] was under 0.3 µM.
Compound `Cc1c(C)c2c(c(C)c1O)C=C(CO)C1(CCC1)O2` [3-(hydroxymethyl)-5,7,8-trimethylspiro[chromene-2,1′-cyclobutan]-6-ol] has an EC50 [2] of under 5 µM, an EC50 [3] of under 10 µM and an IC50 [4] of under 0.3 µM.
Work on `COC1c2c(C)c(O)c(C)c(C)c2OCC12CCC2` (stereo not shown) [4-methoxy-5,7,8-trimethylspiro[chroman-3,1′-cyclobutan]-6-ol] yielded an EC50 [2] of under 5 µM, an EC50 [3] of under 10 µM and an IC50 [4] of under 0.3 µM.
In the case of `CCCCc1cc(-c2c(C)c(O)c(C)c3c2OC2(CCC2)CC3)no1` [5,7-dimethyl-8-(5-butyl-isoxazol-3-yl)-3,4-dihydrospiro[chromene-2,1′-cyclobutan]-6-ol], the EC50 [2] is reported as under 5 µM, the EC50 [3] is reported as under 10 µM and the IC50 [4] is reported as under 0.3 µM.
Compound `CCOC1CC2(CCC2)Oc2cc(C)c(O)c(C)c21` (stereo not shown) [4-ethoxy-5,7-dimethyl-3,4-dihydrospiro[chromene-2,1′-cyclobutan]-6-ol] has an EC50 [2] of under 5 µM, an EC50 [3] of under 10 µM and an IC50 [4] of under 0.3 µM.
`CC(C)c1cc2c(c(C(C)C)c1O)CCC1(CCC1)O2` [5,7-diisopropyl-3,4-dihydrospiro[chromene-2,1′-cyclobutan]-6-ol] was tested, and the EC50 [2] was under 5 µM, the EC50 [3] was under 10 µM and the IC50 [4] was under 0.3 µM.
`CONC1CC2(CCC2)Oc2cc(C)c(O)c(C)c21` (stereo not shown) [4-(methoxyamino)-5,7-dimethyl-3,4-dihydrospiro[chromene-2,1′-cyclobutan]-6-ol] showed an EC50 [2] of under 5 µM, an EC50 [3] of under 10 µM and an IC50 [4] of under 0.3 µM.
In the case of `CCO/N=C1\CC2(CCC2)Sc2c(C)c(C)c(O)c(C)c21` [6′-hydroxy-5′,7′,8′-trimethylspiro[cyclobutane-1,2′-thiochromen]-4′(3′H)-one O-ethyloxime], the EC50 [2] is reported as under 5 µM, the EC50 [3] is reported as under 10 µM and the IC50 [4] is reported as under 0.3 µM.
`COC1CC2(CCC2)Oc2cc(C)c(O)c(C)c21` (stereo not shown) [4-methoxy-5,7-dimethyl-3,4-dihydrospiro[chromene-2,1′-cyclobutan]-6-ol] gave an EC50 [2] of under 5 µM, an EC50 [3] of under 10 µM and an IC50 [4] of under 0.3 µM.
In the case of `Cc1c(O)c(C)c(-c2cnco2)c2c1CCC1(CCC1)O2` [5,7-dimethyl-8-(1,3-oxazol-5-yl)-3,4-dihydrospiro[chromene-2,1′-cyclobutan]-6-ol], the EC50 [2] is reported as under 5 µM, the EC50 [3] is reported as under 10 µM and the IC50 [4] is reported as under 0.3 µM.
With `Cc1c(O)cc2c(c1C)OCC1(CC1)C2` [7,8-dimethylspiro[chroman-3,1′-cyclopropan]-6-ol] the EC50 [2] was under 5 µM, the EC50 [3] was under 10 µM and the IC50 [4] was under 0.3 µM.
In the case of `CCc1cc2c(c(CC)c1O)/C(=N/O)CC1(CCC1)O2` [5,7-diethyl-6-hydroxyspiro[chromene-2,1′-cyclobutan]-4(3H)-one oxime], the EC50 [2] is reported as under 5 µM, the EC50 [3] is reported as under 10 µM and the IC50 [4] is reported as under 0.3 µM.
In the case of `Cc1c(O)cc2c(c1C)OCC1(CCC1)C2` [7,8-dimethylspiro[chroman-3,1′-cyclobutan]-6-ol], the EC50 [2] is reported as under 5 µM, the EC50 [3] is reported as under 10 µM and the IC50 [4] is reported as under 0.3 µM.
`CONC1CC2(CCC2)Oc2cc(C)c(O)c(C)c21` (stereo in doubt) [(4R)-4-(methoxyamino)-5,7-dimethyl-3,4-dihydrospiro[chromene-2,1′-cyclobutan]-6-ol] was tested, and the EC50 [2] was under 5 µM, the EC50 [3] was under 10 µM and the IC50 [4] was under 0.3 µM.
Compound `CO/N=C1\CC2(CCC2)Sc2cc(C)c(O)c(C)c21` [6′-hydroxy-5′,7′-dimethylspiro[cyclobutane-1,2′-thiochromen]-4′(3′H)-one O-methyloxime] has an EC50 [2] of under 5 µM, an EC50 [3] of under 10 µM and an IC50 [4] of under 0.3 µM.
Compound `CCc1cc2c(c(CC)c1O)C(NOC)CC1(CCC1)O2` (stereo not shown) [4-(methoxyamino)-5,7-diethyl-3,4-dihydrospiro[chromene-2,1′-cyclobutan]-6-ol] has an EC50 [2] of under 5 µM, an EC50 [3] of under 10 µM and an IC50 [4] of under 0.3 µM.
In the case of `CONC1CC2(CCC2)Oc2cc(C)c(O)c(C)c21` (stereo in doubt) [(4S)-4-(methoxyamino)-5,7-dimethyl-3,4-dihydrospiro[chromene-2,1′-cyclobutan]-6-ol], the EC50 [2] is reported as under 5 µM, the EC50 [3] is reported as under 10 µM and the IC50 [4] is reported as under 0.3 µM.
